Test [1] relates to C57BL/6J male mice. Kind of test: Portal vein active GLP-1 and total GIP 30 minutes after oral administration of monosaccharides to fasting mice (Example 2). The following applies: 30 minutes after administration, vs saline. In kind it is in vivo. On the procedure:
To the C57BL/6J male mice (9-11 weeks old) having fasted for 16 hours from 18:00 on the day before the experiment, D-psicose at 0.3 g/kg or 1 g/kg, D-tagatose or D-glucose each at 1 g/kg, or saline was orally administered into each stomach at 10:00 AM. The dose of the oral administration was 10 ml/kg. The blood was collected from the portal vein under isoflurane anesthesia 30 minutes after the administration. Note that an anticoagulant (heparin (final concentration: 50 IU/ml)) and peptide degradation suppressors (aprotinin (final concentration: 500 KIU/ml) and vildagliptin (final concentration: 10 μM)) had been added into the sampling syringes in advance. The collected blood was cooled and centrifuged. The blood plasma was stored at −80° C. until the analysis. The quantitative analyses of active GLP-1 and total GIP were conducted using the above-described kits. In addition, as the statistical analyses, a one-way analysis of variance (unpaired) was performed, followed by Dunnett's test using saline as the control. […] Note that, in FIG. 3, * indicates p<0.05, and ** indicates p<0.01. Moreover, numerical values in bar graphs in the figure each indicate the number of experiments.

The test system of test [2] is C57BL/6J male mice. The test can be described thus: Amount of diet ingested after oral D-psicose with or without GLP-1 receptor inhibitor Ex-9 (Example 3). In kind it is in vivo. The following applies: vs control group. On the procedure: The C57BL/6J male mice (9-11 weeks old) were preliminarily grown in separate cages for one week or more, and habituated to the growth and experimental environment through training by the experimenter. After the fasting for 16 hours from 18:00 on the day before the experiment, saline or a GLP-1 receptor inhibitor (Exendin-9, Ex-9, 200 nmol/kg) was intraperitoneally administered from 9:45. Immediately thereafter, saline or D-psicose at 1 g/kg was orally administered into each stomach. The doses of the intraperitoneal administration and the oral administration were respectively 5 ml/kg and 10 ml/kg. From 10:00, the mice were fed with Diet CE-2 (common mouse diet with well-balanced nutrients, manufactured by CLEA Japan, Inc.) ad lib. After 0.5 hours, 1 hour, 2 hours, 3 hours, and 6 hours, the amounts of the diet ingested were measured over time. Each amount of the diet ingested was calculated as the amount of energy ingested (kcal), given that 1 g of D-psicose orally administered into the stomach is 0 kcal, and 1 g of Diet CE-2 is 3.45 kcal. As the statistical analyses, a one-way analysis of variance (unpaired) was performed on the results at the respective time points, and multiple comparisons were performed by Tukey's test among all the groups. […] Note that, in FIG. 4, * indicates p<0.05, and ** indicates p<0.01.

In test [3] the test system is C57BL/6J male mice. The test can be described thus: Portal vein active GLP-1, total GLP-1 and total GIP over time after oral administration to fasting mice (Example 1). In kind it is in vivo. As to conditions: 1 g/kg oral. On the procedure: As the experimental animal, C57BL/6J male mice (9-11 weeks old) were used. To the mice having fasted for 16 hours from 18:00 on the day before the experiment, D-psicose at 1 g/kg was orally administered into each stomach at 10:00 AM. The dose of the oral administration was 10 ml/kg. Before the D-psicose administration and 30 minutes and 60 minutes after the administration, the blood was collected from the portal vein under isoflurane anesthesia. Note that an anticoagulant (heparin (final concentration: 50 IU/ml)) and peptide degradation suppressors (aprotinin (final concentration: 500 KIU/ml) and vildagliptin (final concentration: 10 μM)) had been added into the sampling syringes in advance. The collected blood was cooled, centrifuged, and stored at −80° C. until the resulting blood plasma was analyzed. The quantitative analyses of active GLP-1, total GLP-1, and total GIP were conducted using ELISA kits (manufactured by Millipore Corporation. EGLP-35K, EZGLPIT-36K, and EZRMGIP-55K, respectively). In addition, as the statistical analyses, a one-way analysis of variance (paired) was performed, followed by Dunnett's test using a value before the D-psicose administration (0 min) as the control. […] Note that, in FIG. 2, * indicates p<0.05, and ** indicates p<0.01. Moreover, numerical values in bar graphs in FIG. 2 each indicate the number of experiments.

In a further test the test system is healthy subjects. Kind of test: Total GLP-1 blood concentration AUC after single ingestion by healthy subjects (Example 6). The following applies: humans, fasting. It is filed as in vivo. On the procedure: After setting a termination period for one week or more in advance, 200 ml of water (control beverage) or D-psicose at 5 g/200 ml (D-psicose: 0.07 to 0.11 g/kg body weight), 10 g/200 ml (D-psicose: 0.14 to 0.22 g/kg body weight), or 15 g/200 ml (test beverage) (D-psicose: 0.21 to 0.33 g/kg body weight) each at a single dose was randomly ingested by six healthy subjects (three men and three women. The body weights: 53.3±7.4 kg). In the night before the day when the control beverage or the test beverage was ingested (test day), a designated dinner was ingested. After 21:00 in the night until 9:00 AM on the test day, the ingestion of foods and beverages excluding water and tea beverages was prohibited. As the designated diet, any menu (curry, chicken and egg bowl, beef bowl, Chinese rice bowl) was selectable which hardly contain substances such as dietary fibers, lactic acid bacteria, and fermentative saccharides utilizable by intestinal bacteria for the fermentations. […] The total GLP-1 amount in the centrifuged blood plasma was measured using the product manufactured by Merck KGaA: “Multi Species GLP-1 Total ELISA.” Note that the subjects were made to keep regular lifestyles and avoid excessive exercising, eating, and drinking during the test period of approximately one month, and spend a time quietly in house during the test.

In test [4] the test system is C57BL/6J male mice. The test can be described thus: Amount of diet ingested after oral D-psicose or D-tagatose (Example 4). It is filed as in vivo. As to conditions: 1 g/kg oral, vs control group (saline). On the procedure: The C57BL/6J male mice (7-11 weeks old) were preliminarily grown in separate cages for one week or more, and habituated to the growth and experimental environment through training by the experimenter. After the fasting for 16 hours from 18:00 on the day before the experiment, saline, D-psicose at 1 g/kg, or D-tagatose at 1 g/kg was orally administered into each stomach from 9:50. The doses were each 10 ml/kg. From 10:00, the mice were fed with Diet CE-2 ad lib. After 1 hour, 2 hours, and 6 hours, the amounts of the diet ingested were measured over time. Each amount of the diet ingested was calculated as the amount of energy ingested (kcal), given that 1 g of D-tagatose orally administered into the stomach is 2 kcal, and 1 g of Diet CE-2 is 3.45 kcal. As the statistical analyses, a one-way analysis of variance (unpaired) was performed on the results at the respective time points, and multiple comparisons were performed by Tukey's test among all the groups. […] Note that, in FIG. 5, * indicates p<0.05, and ** indicates p<0.01.

The next test has as its system Sprague Dawley rat. Kind of test: Blood glucose and total GLP-1 over time after oral administration to fasted rats (Example 5). It is filed as in vivo. As to conditions: 2 g/kg body weight oral, fasted SD rats, 0 to 240 minutes. As for the experimental part: Before a sample was administered (0 minutes), the blood was collected from the tail vein of each Sprague Dawley rat (8 to 9 weeks old male) having fasted overnight. Using a feeding tube, each solution of deionized water (control group), D-psicose, an indigestible dextrin (DE10), and a dextrin (the product manufactured by Matsutani Chemical Industry Co., Ltd.: “Pinedex #2” (DE10)) was orally administered at 2 g/kg body weight (10 mL/kg body weight). Then, the blood was collected from the tail vein after 15 minutes, 30 minutes, 60 minutes, 90 minutes, 120 minutes, 150 minutes, 180 minutes, 210 minutes, and 240 minutes.
The blood was collected into a tube to which a DPP-IV inhibitor (manufactured by Millipore Corporation), aprotinin (manufactured by Wako Pure Chemical Industries, Ltd.), and heparin (manufactured by Nacalai Tesque, Inc.) had been added in advance. The blood plasma was collected by centrifugation, and cryopreserved at −80° C. The total GLP-1 concentration in the resulting blood plasma was measured with a commercially available ELISA kit (Multi Species GLP-1 Total ELISA manufactured by Millipore Corporation). The glucose concentration in the blood plasma was measured with Glucose CII-Test Wako (manufactured by Wako Pure Chemical Industries, Ltd.).

Test [5] relates to murine large intestine-derived, Glucagon-like peptide-1 (GLP-1) producing cell line GLUTag. The test can be described thus: GLP-1 secretion test in GLUTag cells (preliminary test). It is filed as cell-based. The following applies: 10 mM, 20 mM and 40 mM solutions, 60 minutes. On the procedure: A murine large intestine-derived, Glucagon-like peptide-1 (GLP-1) producing cell line GLUTag was cultured in 10%-FBS containing Dulbecco's modified Eagle's medium at 37° C. in the presence of 5% CO2. The GLUTag cells were cultured in a 48-well plate for 2 or 3 days until subconfluence. Before each sample (D-psicose or an indigestible dextrin) was added, the wells were washed with a Hepes buffer (140 mM NaCl, 4.5 mM KCl, 20 mM Hepes, 1.2 mM CaCl2, 1.2 mM MgCl2, 10 mM D-glucose, 0.1% BSA, pH: 7.4). Then, 80 μl of a solution of the sample dissolved in the same buffer was added to the wells, and incubated at 37° C. for 60 minutes. After the supernatant was collected, the cells were precipitated by centrifugation (800×g, 5 minutes, 4° C.), and 70 μl of the supernatant was cryopreserved. The total GLP-1 in this supernatant was measured with commercially available “Enzyme immuno assay kit” (manufactured by Yanaihara Institute Inc.).

Setting [6] is: 30 to 60 minutes after administration vs 0 min.

On to `O=C[C@H](O)[C@@H](O)[C@H](O)[C@H](O)CO` [D-glucose, reference compound], for which, in the test with C57BL/6J male mice [1] (1 g/kg oral), the “active GLP-1 concentration in the portal veins” value (shortened to “active GLP-1 concentration”) is “did not change at all” and the “total GIP in the portal veins” value is on record as “significantly increased the GIP concentration”.

Turning to `O=C(CO)[C@H](O)[C@H](O)[C@H](O)CO` [D-psicose], the “amount of the diet ingested” value with C57BL/6J male mice [2] (Ex-9 200 nmol/kg i.p. + D-psicose 1 g/kg oral, 30 minutes after administration) is given as “significantly smaller”; in the test with C57BL/6J male mice [2] (Ex-9 200 nmol/kg i.p. + D-psicose 1 g/kg oral, after 1 hour (to 6 hours) from administration), “not significantly different”; in the test on C57BL/6J male mice [2] (saline i.p. + D-psicose 1 g/kg oral, 30 minutes to 6 hours after administration) it was “significantly decreased”; in the test with C57BL/6J male mice [4] (1 hour to 6 hours after administration) it was “significantly smaller”. Besides, the results for the “active GLP-1 concentration” value with C57BL/6J male mice [1] (0.3 g/kg oral), in the test with C57BL/6J male mice [1] (1 g/kg oral) and with C57BL/6J male mice [3] (setting [6]) were “tended to increase”, “significantly increased” and “increased”, respectively. Moreover, the “total GIP in the portal veins” value in the test with C57BL/6J male mice [1] (0.3 g/kg oral) and in the test with C57BL/6J male mice [1] (1 g/kg oral) was “only the D-glucose administration group significantly increased the GIP concentration” in each case. Besides, the “total GLP-1 concentration in the portal veins” value in the test on C57BL/6J male mice [3] (setting [6]) is given as “increased”. In addition, in the test with C57BL/6J male mice [3] (for 60 minutes after administration), the “GIP secretion (total GIP concentration in the portal veins)” value is given as “did not influence the GIP secretion”. The “area under total GLP-1 blood concentration-time curve (AUC)” value in the test on healthy subjects (single dose 5 g, 10 g or 15 g/200 ml, 15 to 180 minutes) is on record as “increased in a manner dependent on the amount of D-psicose ingested”. For the same compound, the “single dose at which the effect of promoting the amount of total GLP-1 secreted into the blood was obtained” value in the test with healthy subjects (single oral ingestion) is “at least 0.07 g/kg body weight”. The blood sugar level entry with Sprague Dawley rat was “small variation”. In the test on Sprague Dawley rat, the “total GLP-1 concentration in the blood” value is on record as “greatly increased”. In addition, the “GLP-1 secretion (total GLP-1 in supernatant)” value in test [5] was “merely tended to exhibit slight secretion promotion”.

With `O=C(CO)[C@@H](O)[C@@H](O)[C@H](O)CO` [D-tagatose, reference compound], in the test on C57BL/6J male mice [1] (1 g/kg oral), the “active GLP-1 concentration” value is “tended to increase” and the “total GIP in the portal veins” value is on record as “only the D-glucose administration group significantly increased the GIP concentration”. For the same compound, in the test on C57BL/6J male mice [4] (1 hour after administration), the “amount of the diet ingested” value is “significantly smaller”. Besides, the “amount of the diet ingested” value in the test with C57BL/6J male mice [4] (2 hours and 6 hours after administration) is “almost the same”.

Consider Exendin-9 [Ex9, reference compound], for which, in the test on C57BL/6J male mice [2] (Ex-9 200 nmol/kg i.p. + saline oral, all time zones), the “amount of the diet ingested” value is “at the same levels”.

These data come from patent US20180214467A1, “GLP-1 SECRETAGOGUE” (EDUCATIONAL FOUNDATION JICHI MEDICAL UNIVERSITY, priority 2015, published 2018).
